Results published in patent US12582721B2, “Molybdenum-based feed supplement for bees” (UNIVERSITE DE VERSAILLES—SAINT-QUENTIN-EN-YVELINES, priority 2020, dated 2026).
“Also recorded” adds a separate entry of the source.

Tests used:
bee colonies [1] = experiment: 3rd test in the hives: winter mortality of colonies, California 2019; type: in vivo, bees; conditions: single dose 4 mg per hive, 25-28 Oct. 2019, counted Jan. 7, 2020; 26 of 75 lost; control hives 61.8%
Protocol: A treatment campaign was carried out in the autumn-winter in apiaries located in California, near San Francisco. This region is particularly vulnerable to winter mortality of bee colonies which can reach as high as 80% in some years.
151 hives, distributed over 6 different apiaries in California to the south of San Francisco were selected. The bees were of different types: Wildflower (VSH-Italian), Beeweaver, Carniolan Californian Bee (Pope Canyon), Californian bee Tom and Italian Californian bee (Sam).
The hives were Langstroth 2 body type hives (15 frames compared to 10 for Dadant hives in Europe).
(§1) 2019 by syringe in the form of a concentrated aqueous solution (8 g/L) in a sugar syrup into the feeding frame. 0.5 mL of this solution was introduced and dispersed in 3.5 liters of sugar syrup at 65% sugar and introduced into the hive. […] The control hives only received sugar syrup.
The surviving colonies were counted on Jan. 7, 2020. A total of 73 colonies out of the initial 151 died, that is an overall mortality of 48.3%.

[2] = tested on: human epithelial pancreatic adenocarcinoma cells of the BxPC-3 line; experiment: Resazurin cell proliferation test, BxPC-3 cells; type: cell-based; conditions: pancreatic cancer cells; IC50 equal to and greater than 100 μM considered no activity
Text: (§2) For cell culture, human cervical epithelial cells of the HeLa line, human epithelial pancreatic adenocarcinoma cells of the BxPC-3 line and healthy Madin-Darby canine kidney epithelial cells of the MDCK line were used in this study. The Resazurin cell proliferation test was applied according to the literature (S. Anoopkumar-Dukie, J. B. Carey, T. Conere, E. O'Sullivan, F. N. van Pelt, A. Allshire, Br J Radiol 2005, 78, 945, DOI: 10.1259/bjr/54004230). As an indicator of the effectiveness of the experimental compounds on cell proliferation, the median inhibitory concentration (IC50) was used. The lower the IC50 value, the higher the activity (in this case, the cytotoxicity).
(§3) Five formula I complexes were tested in this study in comparison to two reference anti-cancer compounds (“Cisplatin” and Doxorubicin complex).

[3] = tested on: human cervical epithelial cells of the HeLa line; experiment: Resazurin cell proliferation test, HeLa cells; type: cell-based; conditions: cervical cancer cells; IC50 equal to and greater than 100 μM considered no activity
Text: as §2, §3

bee colonies [4] = experiment: 4th test in the hives: winter mortality of colonies, California 2020; type: in vivo, bees; conditions: counted Dec. 31, 2020, 55 hives, Batch 1 27.3%
Protocol: A second treatment campaign was carried out in the autumn-winter 2020 in apiaries located in California, near San Francisco. This region is particularly vulnerable to winter mortality of bee colonies which can reach as high as 80% in some years.
220 hives distributed over 13 different apiaries in California to the south of San Francisco were selected. Each apiary comprised between 8 and 24 hives. The bees were of different types: 165 hives of Wildflower bees (VSH-Italian) and 55 hives of Beeweaver bees (VSH-Carniolan).
The hives were Langstroth 2 body type hives (15 frames compared to 10 for Dadant hives in Europe). […] 20, 2020 and Oct. 12, 2020.
1 apiary only contained Wildflower type bees. 2 apiaries only contained Beeweaver type bees. The other 10 apiaries comprised Wildflower and Beeweaver bees that were evenly distributed between the 4 batches.
as §1, with “The product Li—Mo2O4-EDTA was introduced on Sep. 20, 2020, and/or on Oct. 12, 2020” for “2019”, “(0.8” for “(8”, “frame feeder. 10” for “feeding frame. 0.5”, “were” for “was”
The dead colonies were counted on Dec. 31, 2020. A total of 28 colonies were dead on 31 Dec. 2020, that is 12.73% of the total. The mortality rate is identical for Wildflower bees (21/165) and Beeweaver bees (7/55). The mortality per batch is distributed as follows: • Batch 1: 15 hives/55 hives, that is 27.3% losses • Batch 2: 0 hive/55 hives, that is 0% losses • Batch 3: 10 hives/55 hives, that is 18.2% losses • Batch 4: 3 hives/55 hives, that is 5.5% losses.

[5] = tested on: HeLa, BxPC-3 and MDCK cells; conditions: BxPc-3 and HeLa
Text: as §2

bees = experiment: Toxicity study on bees (lifespan of caged bees); type: in vivo
Protocol: Fifty newly hatched bees (age=1 day) were placed in a special cage with a wax strip, water and food, and were kept in the laboratory oven at a constant temperature of 33° C. and 50% humidity. […] The consumption of water and food was checked every day. Dead bees were counted and removed. For statistical reasons, the experiments were repeated up to 3 times if necessary.

bee families = conditions: feeding method of MD4438; cited from earlier work

| Structure (SMILES) | Winter mortality of colonies (bee colonies [1]) | IC50, BxPc-3 [2] | IC50, HeLa [3] | Mortality of colonies (losses) (bee colonies [4]; Batch 2: fed on Sep. 20, 2020, 8 mg) | Mortality of colonies (losses) (bee colonies [4]; Batch 3: fed on Oct. 12, 2020, 8 mg) | Mortality of colonies (losses) (bee colonies [4]; Batch 4: fed on Sep. 20, 2020 and Oct. 12, 2020) | Cytotoxicity, conclusion from Table 1 [5] | Survival of caged bees versus control group (bees; 2 mg/L in sucrose solution, p>0.05, χ2=3.36) | Survival of caged bees versus control group (bees; 20 mg/L in sucrose solution, p>0.05, χ2=0.04) | IC50 [2] | IC50 [3] | Effect on queens and bee families (bee families) |
| --- | --- | --- | --- | --- | --- | --- | --- | --- | --- | --- | --- | --- |
| O.O.O.O.O.O.O=C([O-])CN(CCN(CC(=O)[O-])CC(=O)[O-])CC(=O)[O-].[Li+].[Li+].[O]=[Mo+]12[O][Mo+]1(=[O])[O]2 [Li—Mo2O4-EDTA, Li2[Mo2O4 (EDTA)]·6H2O] | 34.7% | Inactive | Inactive | 0% | 18.2% | 5.5% | no cytotoxicity |  |  |  |  |  |
| O.O.O.O.O.O=C([O-])CN(CCN(CC(=O)[O-])CC(=O)[O-])CC(=O)[O-].[Na+].[Na+].[O]=[Mo+]12[O][Mo+]1(=[O])[O]2 [Na—Mo2O4-EDTA, Na2[Mo2O4 (EDTA)]·5H2O] |  | Inactive | Inactive |  |  |  | no cytotoxicity | no significant difference; also recorded: does not induce bee mortality | no significant difference; also recorded: does not induce bee mortality |  |  |  |
| O=C([O-])CN(CCN(CC(=O)[O-])CC(=O)[O-])CC(=O)[O-].[O]=[Mo+]12[O][Mo+]1(=[O])[O]2.c1ccc([P+](c2ccccc2)(c2ccccc2)c2ccccc2)cc1.c1ccc([P+](c2ccccc2)(c2ccccc2)c2ccccc2)cc1 [PPh4—Mo2O4-EDTA, (PPh4)2[Mo2O4 (EDTA)]·2.5H2O] |  |  |  |  |  |  |  |  |  | 25.1 ± 7.02 µM | ≥ 100 µM | stimulating the oogenesis functions of the queens, increasing the amount of larvae, improving the quantitative development of the bee families and increasing productivity thereof |
